Test results taken from patent US20210254056A1, “IDENTIFICATION AND TARGETED MODULATION OF GENE SIGNALING NETWORKS” (CAMP4 THERAPEUTICS CORPORATION, priority 2017, published 2021).
Structures can show the parent of a compound that is named as a salt.

Tested on: hepatocytes
Experiment: RNA-seq of hepatocytes treated with Phase III failure compounds
Settings: for significant modulation of expression of disease genes: q≤0.05, genes in the value or listed in the block
Procedure: RNA-seq was performed to determine the effects of the compounds on hepatocytes.
Significance was determined by the criteria of FPKM≥0.5, a log 2(fold-change)≥1, and a […].

[1] = RNA-seq, hepatocytes, gene named in the value

CCN(CC)CCN(Cc1ccc(-c2ccc(C(F)(F)F)cc2)cc1)C(=O)Cn1c(SCc2ccc(F)cc2)nc(=O)c2c1CCC2 [Darapladib]
RNA-seq results, CYP2B6 expression: −0.12
RNA-seq results, CYP2C19 expression: −0.01
RNA-seq results, CYP2D6 expression: −0.21
RNA-seq results, CYP3A4 expression: −0.47
RNA-seq results, CYP7B1 expression: −0.03
RNA-seq results, CYP39A1 expression: −0.23
RNA-seq results: CYP2B6 expression: 0.25
RNA-seq results: CYP2C19 expression: 0.54
RNA-seq results: CYP2D6 expression: −0.06
RNA-seq results: CYP3A4 expression: 0.07
RNA-seq results: CYP7B1 expression: −0.46
RNA-seq results: CYP39A1 expression: −0.07
significant modulation of expression of disease genes (RNA-seq, hepatocytes): significantly (q≤0.05) modulate expression
genes down-regulated by the compound [1]: ANGPTL3 was observed to be down-regulated
genes up-regulated by the compound [1]: up-regulated genes: LDLR, PCSK9, and HMGCR
RNA-seq results: A1BG expression (gene A1BG, hepatocytes): 0.01
RNA-seq results: AGTR1 expression (gene AGTR1, hepatocytes): −0.18
RNA-seq results: AGXT expression (gene AGXT, hepatocytes): −0.38
RNA-seq results: AHI1 expression (gene AHI1, hepatocytes): 0.12
RNA-seq results: AMPD3 expression (gene AMPD3, hepatocytes): 0.42
RNA-seq results: AMT expression (gene AMT, hepatocytes): −0.35
RNA-seq results: ANGPTL3 expression (gene ANGPTL3, hepatocytes): −1.20
RNA-seq results: ANKS4B expression (gene ANKS4B, hepatocytes): −0.52
RNA-seq results: ANKS6 expression (gene ANKS6, hepatocytes): 0.11
RNA-seq results: ANPEP expression (gene ANPEP, hepatocytes): 0.11
RNA-seq results: AOC2 expression (gene AOC2, hepatocytes): 0.28
RNA-seq results: APOA2 expression (gene APOA2, hepatocytes): −0.33
RNA-seq results: APOA5 expression (gene APOA5, hepatocytes): −0.19
RNA-seq results: APOB expression (gene APOB, hepatocytes): 0.54
RNA-seq results: COG5 expression (gene COG5, hepatocytes): 0.11
RNA-seq results: COG6 expression (gene COG6, hepatocytes): −0.09
RNA-seq results: COL1A1 expression (gene COL1A1, hepatocytes): 0.18
RNA-seq results: COX6A1 expression (gene COX6A1, hepatocytes): −0.08
RNA-seq results: CP expression (gene CP, hepatocytes): 0.77
RNA-seq results: CPS1 expression (gene CPS1, hepatocytes): −0.89
RNA-seq results: CPT1A expression (gene CPT1A, hepatocytes): 0.11
RNA-seq results: CPT2 expression (gene CPT2, hepatocytes): −0.16
RNA-seq results: CROT expression (gene CROT, hepatocytes): −0.49
RNA-seq results: CSPP1 expression (gene CSPP1, hepatocytes): 0.24
RNA-seq results: CTC1 expression (gene CTC1, hepatocytes): −0.01
RNA-seq results: CTDSP2 expression (gene CTDSP2, hepatocytes): 0.52
RNA-seq results: CTH expression (gene CTH, hepatocytes): 1.17
RNA-seq results: CTNS expression (gene CTNS, hepatocytes): −0.11
RNA-seq results: CTSF expression (gene CTSF, hepatocytes): 0.25
RNA-seq results: CTSK expression (gene CTSK, hepatocytes): 0.31
RNA-seq results: CYB5A expression (gene CYB5A, hepatocytes): −0.12
RNA-seq results: CYB5R3 expression (gene CYB5R3, hepatocytes): −0.21
RNA-seq results: CYP27A1 expression (gene CYP27A1, hepatocytes): −0.18
RNA-seq results: DAO expression (gene DAO, hepatocytes): −1.06
RNA-seq results: DBT expression (gene DBT, hepatocytes): −0.13
RNA-seq results: DCDC2 expression (gene DCDC2, hepatocytes): −1.43
RNA-seq results: DCXR expression (gene DCXR, hepatocytes): −0.74
RNA-seq results: FABP1 expression (gene FABP1, hepatocytes): 0.07
RNA-seq results: FADD expression (gene FADD, hepatocytes): −0.45
RNA-seq results: FAM111A expression (gene FAM111A, hepatocytes): 0.1
RNA-seq results: FAM111B expression (gene FAM111B, hepatocytes): −2.15
RNA-seq results: FAN1 expression (gene FAN1, hepatocytes): −0.03
RNA-seq results: FARS2 expression (gene FARS2, hepatocytes): −0.42
RNA-seq results: FASLG expression (gene FASLG, hepatocytes): −1.32
RNA-seq results: FGA expression (gene FGA, hepatocytes): −0.32
RNA-seq results: FGD1 expression (gene FGD1, hepatocytes): −0.46
RNA-seq results: FGFR2 expression (gene FGFR2, hepatocytes): −0.13
RNA-seq results: FIG4 expression (gene FIG4, hepatocytes): −0.07
RNA-seq results: FIS1 expression (gene FIS1, hepatocytes): −0.35
RNA-seq results: FTCD expression (gene FTCD, hepatocytes): −0.56
RNA-seq results: FTH1 expression (gene FTH1, hepatocytes): 0.44
RNA-seq results: FUCA1 expression (gene FUCA1, hepatocytes): −0.13
RNA-seq results: FXN expression (gene FXN, hepatocytes): −0.22
RNA-seq results: G6PC3 expression (gene G6PC3, hepatocytes): −0.52
RNA-seq results: G6PC expression (gene G6PC, hepatocytes): 0.6
RNA-seq results: G6PD expression (gene G6PD, hepatocytes): −0.41
RNA-seq results: GALK1 expression (gene GALK1, hepatocytes): −0.61
RNA-seq results: GALK2 expression (gene GALK2, hepatocytes): −0.14
RNA-seq results: GALT expression (gene GALT, hepatocytes): −0.58
RNA-seq results: GATA6 expression (gene GATA6, hepatocytes): 0
RNA-seq results: GATM expression (gene GATM, hepatocytes): −0.52
RNA-seq results: GBA expression (gene GBA, hepatocytes): −0.23
RNA-seq results: GBE1 expression (gene GBE1, hepatocytes): −0.11
RNA-seq results: GCH1 expression (gene GCH1, hepatocytes): −0.19
RNA-seq results: GCKR expression (gene GCKR, hepatocytes): −0.06
RNA-seq results: GCLC expression (gene GCLC, hepatocytes): −0.02
RNA-seq results: GOSH expression (gene GOSH, hepatocytes): −1.21
RNA-seq results: RRM2B (gene RRM2B, hepatocytes): −0.49
RNA-seq results: RSAD1 (gene RSAD1, hepatocytes): −0.13
RNA-seq results: SAMHD1 (gene SAMHD1, hepatocytes): −0.48
RNA-seq results: SC5D (gene SC5D, hepatocytes): 0.37
RNA-seq results: SCARB1 (gene SCARB1, hepatocytes): −0.07
RNA-seq results: SCN9A (gene SCN9A, hepatocytes): −0.42
RNA-seq results: SDCCAG8 (gene SDCCAG8, hepatocytes): −0.06
RNA-seq results: SEPN1 (gene SEPN1, hepatocytes): −0.10
RNA-seq results: SERAC1 (gene SERAC1, hepatocytes): −0.02
RNA-seq results: SERPINA1 (gene SERPINA1, hepatocytes): −0.05
RNA-seq results: SERPING1 (gene SERPING1, hepatocytes): 0.21
RNA-seq results: SERPINI1 (gene SERPINI1, hepatocytes): −0.42
RNA-seq results: SETBP1 (gene SETBP1, hepatocytes): −0.10
RNA-seq results: SFXN4 (gene SFXN4, hepatocytes): −0.38
RNA-seq results: SLC10A1 (gene SLC10A1, hepatocytes): −0.68
RNA-seq results: SLC10A3 (gene SLC10A3, hepatocytes): 0.47
RNA-seq results: SLC10A5 (gene SLC10A5, hepatocytes): −0.54
RNA-seq results: SLC10A7 (gene SLC10A7, hepatocytes): −0.22
RNA-seq results: SLC11A2 (gene SLC11A2, hepatocytes): 0.39
RNA-seq results: SLC19A1 (gene SLC19A1, hepatocytes): −0.26
RNA-seq results: SLC19A2 (gene SLC19A2, hepatocytes): 0.54
RNA-seq results: SLC19A3 (gene SLC19A3, hepatocytes): −0.22
RNA-seq results: SLC22A1 (gene SLC22A1, hepatocytes): −0.28
RNA-seq results: SLC22A5 (gene SLC22A5, hepatocytes): −0.23
RNA-seq results: SLC25A1 (gene SLC25A1, hepatocytes): 0.24
RNA-seq results: SLC25A10 (gene SLC25A10, hepatocytes): −0.48
RNA-seq results: SLC25A12 (gene SLC25A12, hepatocytes): −0.22
RNA-seq results: SLC25A13 (gene SLC25A13, hepatocytes): 0.20
RNA-seq results: SLC25A15 (gene SLC25A15, hepatocytes): −0.28
RNA-seq results: SLC25A19 (gene SLC25A19, hepatocytes): 0.03
RNA-seq results: SLC25A20 (gene SLC25A20, hepatocytes): −0.62
RNA-seq results: SLC25A29 (gene SLC25A29, hepatocytes): 0.92
RNA-seq results: SLC25A32 (gene SLC25A32, hepatocytes): −0.21

Cl.OC[C@H]1NC[C@H](O)[C@@H](O)[C@H]1O [Deoxygalactonojirimycin hydrochloride]
significant changes in gene expression (RNA-seq of Table 36, FPKM≥0.5, log 2(fold-change)≥1, q-value≤0.05): not observed to cause any significant changes in gene expression
significant modulation of expression of any of the genes analyzed (RNA-seq, p≤0.05, hepatocytes): not observed to significantly modulate expression

O=C(N[C@H]1CN2CCC1CC2)c1cc2cccc(Cl)c2s1 [EVP-6124 (hydrochloride) (encenicline), encenicline]
Number (#) of genes having significantly changed expression (RNA-seq, Phase III failure compounds, hepatocytes, significance: FPKM≥0.5, log 2(fold-change)≥1, q-value≥0.05 (so in the source)): 141
significant modulation of expression of disease genes (RNA-seq, hepatocytes): significantly (q≤0.05) modulate expression
B2M expression, RNA-seq result (gene B2M, hepatocytes): 0.16
B9D2 expression, RNA-seq result (gene B9D2, hepatocytes): −0.55
BAAT expression, RNA-seq result (gene BAAT, hepatocytes): 0.61
BBOX1 expression, RNA-seq result (gene BBOX1, hepatocytes): −0.14
BBS10 expression, RNA-seq result (gene BBS10, hepatocytes): −0.33
BCHE expression, RNA-seq result (gene BCHE, hepatocytes): −0.41
BCKDHB expression, RNA-seq result (gene BCKDHB, hepatocytes): −0.31
BCKDK expression, RNA-seq result (gene BCKDK, hepatocytes): −0.23
BCO1 expression, RNA-seq result (gene BCO1, hepatocytes): 0.24
BCR expression, RNA-seq result (gene BCR, hepatocytes): −0.06
BLNK expression, RNA-seq result (gene BLNK, hepatocytes): 0.39
BLOC1S3 expression, RNA-seq result (gene BLOC1S3, hepatocytes): 0.46
BMPR1A expression, RNA-seq result (gene BMPR1A, hepatocytes): 0.09
BRAF expression, RNA-seq result (gene BRAF, hepatocytes): 0.04
BSCL2 expression, RNA-seq result (gene BSCL2, hepatocytes): −0.54
BTD expression, RNA-seq result (gene BTD, hepatocytes): −0.08
C4A expression, RNA-seq result (gene C4A, hepatocytes): 0.24
C9 expression, RNA-seq result (gene C9, hepatocytes): −0.11
C10orf10 expression, RNA-seq result (gene C10orf10, hepatocytes): −0.31
C10orf11 expression, RNA-seq result (gene C10orf11, hepatocytes): 0.1
C15orf41 expression, RNA-seq result (gene C15orf41, hepatocytes): −0.2
CA2 expression, RNA-seq result (gene CA2, hepatocytes): 0.6
CA5A expression, RNA-seq result (gene CA5A, hepatocytes): 0.1
CA12 expression, RNA-seq result (gene CA12, hepatocytes): 0.58
CAV1 expression, RNA-seq result (gene CAV1, hepatocytes): −0.81
CCND1 expression, RNA-seq result (gene CCND1, hepatocytes): −0.9
CD46 expression, RNA-seq result (gene CD46, hepatocytes): 0.24
CD81 expression, RNA-seq result (gene CD81, hepatocytes): 0.27
CD320 expression, RNA-seq result (gene CD320, hepatocytes): −0.04
CDAN1 expression, RNA-seq result (gene CDAN1, hepatocytes): −0.04
CDH1 expression, RNA-seq result (gene CDH1, hepatocytes): −0.12
CEP19 expression, RNA-seq result (gene CEP19, hepatocytes): −0.06
CEP83 expression, RNA-seq result (gene CEP83, hepatocytes): −0.3
CEP164 expression, RNA-seq result (gene CEP164, hepatocytes): −0.12
CEP290 expression, RNA-seq result (gene CEP290, hepatocytes): −0.26
CFB expression, RNA-seq result (gene CFB, hepatocytes): 0.1
CFHR2 expression, RNA-seq result (gene CFHR2, hepatocytes): −0.08
CHRM3 expression, RNA-seq result (gene CHRM3, hepatocytes): 0.28
CIDEC expression, RNA-seq result (gene CIDEC, hepatocytes): −0.13
CLDN1 expression, RNA-seq result (gene CLDN1, hepatocytes): −0.46
COG1 expression, RNA-seq result (gene COG1, hepatocytes): −0.19
